Measurements as given in PMC8595825 (Journal of medicinal chemistry, 2021).

System: M. tuberculosis H37Rv
Format: cell-based, Mycobacterium tuberculosis H37Rv
Settings: 1× to 8× MIC90, 8 weeks, 3 × 10^8 cells

Compound | spontaneous mutation frequency
CCCCCCCCn1c2c([n+](CCCC)c1C)C(=O)c1ccccc1C2=O.[Br-] [compound 32] | < 3 × 10^−9 /CFU
CCCCCCCn1c2c([n+](CCCCC)c1C)C(=O)c1ccccc1C2=O.[Br-] [compound 48] | < 3 × 10^−9 /CFU
